Results taken from patent publication US12589143B2, “Human anti-PD-L1 peptide vaccines and methods of their use” (priority 2019, dated 2026).
Where no end group is shown, it is not given here.

What was measured:
[1] = system: CT26 colon carcinoma cell line; experiment: CT26 WT tumor challenge in immunized Balb/c mice; assay type: in vivo; settings: for tumor inhibition versus PBS: Balb/c; for average tumor growth inhibition: day 14 and 16
Text: FIGS. 5A, 5B, 5C, and 5D show the experimental scheme to test the immunization with PD-L1 in Balb/c mice. […] Balb/c mice 6-8 weeks old, were immunized with MVF-peptide immunogens emulsified in ISA 720 with nor-MDP three times and three weeks apart. Mice were immunized with MVF-PD-L1 vaccine constructs [PD-L1(36-53), PD-L1(50-67), PD-L1(95-112), PD-L1(130-147)] prior to tumor challenge. Blood was collected weekly and sera tested for antibody titers by ELISA. Two weeks after the third immunization (3Y), the mice were engrafted with CT26 WT tumor cells 10^5 per mouse Control mice were treated twice weekly with PBS as negative control and twice weekly with anti-mPD-L1 mAb (10F.9G2) as positive control starting 2 days after tumor challenge. Tumor growths were observed twice weekly and measured by calipers.
The peptide vaccines were dissolved in water and emulsified in Montanide ISA 720 (1:1) and 100 μg nor-MDP (N-acetylglucosamine-3yl-acetyl-1-alanyl-d-isoglutamine). Female Balb/c mice (Charles River Laboratories) at the age of 5 to 6 weeks were immunized three times at 3-week intervals with 100 μg peptide vaccine, and 15 days after the third immunization, the mice were challenged s.c. with CT-26 tumor cells (100,000 per mouse). Mice immunized with an irrelevant MVF peptide chimera were used as a negative control.
Mice treated twice a week with anti-mouse PD-L1 MAb (Bio X Cell, West Lebanon, NH) 200 ug/dose was used as a positive control. Tumor growth was monitored for up to 18 days after challenge. During immunization, blood was drawn biweekly and used in ELISA to monitor Ab titers. The mice were euthanized at the end of treatment and tumors extracted and weighed samples of the tumors were saved for further study and for histological examination. The spleens were also collected for further examination.
Two weeks after the third immunization (3Y), the mice were inoculated subcutaneously (s.c) with CT26 carcinoma cells (1×10^5 cells per mouse) and tumor formation was monitored on a daily basis afterwards. Mice treated with PBS served as negative control, and twice weekly treated mice with 200 μg/dose injections of anti-mouse PD-L1 monoclonal antibody (mAb clone 10F.9G2) served as positive control. Tumor growth was monitored daily and measured by caliper. […] PD-L1 B-cell epitope vaccines treatment had similar and significant reduction in tumor growth at day 16 post challenge as compared to negative control treatment with PBS (FIG. 9).
6-8 weeks old BALB/c mice (Charles River, Wilmington, MA) were used as standard animal models. Mouse CT26 colon carcinoma cell line was purchased from American Type Culture Collection Cells and were regularly cultured in RPMI1640 medium containing 10% FBS. CT26/HER2 cells were kindly provided by M. Penichet. Vaccines were dissolved in sterile water and emulsified in Montanide ISA 720 (1:1). Female Balb/c mice (Charles River Laboratories) at the age of 6-8 weeks were immunized three times at 3-week intervals with 100 μg of each peptide vaccine, and 2 weeks after the third immunization, the mice were challenged with CT26 and/or CT26/HER-2 tumor cells, which were implanted subcutaneously (s.c) on the right flank (1×10^5 per mouse). 200 μg of rat α-mouse PD-L1 mAb 10F.9G2 (Bio X Cell, West Lebanon, NH) were administered intraperitoneally (i.p.), twice weekly following tumor inoculation in the control group. Mice were monitored and scored for the formation of palpable tumors on a daily basis and sacrificed if tumors became necrotic or exceeded the predetermined size of 2,000 mm^3. Tumor volumes were measured in cubic millimeters with calipers and calculated with the following formula: A×B^2×0.5, where A is the largest diameter, and B is the widest point perpendicular to length. During immunization, blood was drawn weekly and used in ELISA to monitor antibody titers.
Tumor sizes were observed daily and measured by caliper. Tumor volumes were calculated by formula: Volume=(Length*Width*Width)/2. […]

PD-1/PD-L1 interaction = target: T1, PD-1/PD-L1 interaction (Homo sapiens, UniProt Q9NZQ7); experiment: PD-1/PD-L1 blockade bioassay (Promega); assay type: cell-based; settings: antibodies from immunized rabbits, compared to Nivolumab and Atezolizumab
T1 construct: host or cells: PD-L1 aAPC/CHO-K1 cells and PD-1 effector cells
T1 sequence (Q9NZQ7 19-290): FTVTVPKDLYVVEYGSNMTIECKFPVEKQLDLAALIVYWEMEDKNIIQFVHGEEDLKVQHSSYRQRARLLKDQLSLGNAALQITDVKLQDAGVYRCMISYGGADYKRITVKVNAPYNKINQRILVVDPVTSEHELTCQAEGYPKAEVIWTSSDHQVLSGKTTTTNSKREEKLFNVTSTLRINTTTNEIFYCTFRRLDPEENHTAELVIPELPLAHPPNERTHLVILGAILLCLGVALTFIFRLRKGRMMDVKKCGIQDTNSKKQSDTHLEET
Description: The assay was performed following the manufacturer's protocol for the PD-1/PD-L1 blockade bioassay (Promega).
The bioluminescent cell-based PD-1/PD-L1 blockade bioassays provide a good option for rapid screening of therapeutic antibodies or other compounds developed to interfere with PD-1-signaling interaction. PD1/PD-L1 blockade assay was used to test the functionality of 3 anti-PD-L1 antibodies. It was observed that purified polyclonal anti-PD-L1 antibody from the rabbits was able to block PD1/PD-L1 interaction similar to commercial anti-human PD-L1 antibody (FIG. 12). […] In FIG. 12, we show the capacity of each of the PD-L1 vaccines to block the PD-1:PD-L1 interaction as compared to Nivolumab and Atezolizumab. Remarkably only PD-L1 130-147 antibodies were effective
The assay was performed following the manufacturer's protocol for the PD-1/PD-L1 blockade bioassay (Promega). In brief, 4×10^5 aAPC/CHO-K1 or PD-L1 aAPC/CHO-K1 cells were seeded into 96-well plates in RPMI-1640 with 10% FBS. After overnight culturing, the medium was aspirated, and serially diluted purified PD-L1 or PD-1 antibodies, as well as Nivolumab and Atezolizumab antibodies (as reference antibodies) were added. Next, PD-1 effector cells were co-cultured and plate was kept for 5 h at 37° C. in a humidified 5% CO2 incubator. Following mixing with Bio-Glo Reagent, the luminescence was measured with a luminescence plate reader, SpectraMax M3 plate reader (Molecular Devices).

## KLLSLIKGVIVHRLEGVEGPSLFVHGEEDLKVQHSSYRQR (KLLSLIKGVIVHRLEGVEGPSLFVHGEEDLKVQHSSYRQR-NH2) [PD-L1(50)]
[1]
  tumor inhibition versus PBS: significant inhibition of tumor growth
  average tumor growth inhibition: strongest average tumor growth inhibition
PD-1/PD-L1 interaction
  blocking of PD-1/PD-L1 interaction: unable to block PD-1 and PD-L1

## KLLSLIKGVIVHRLEGVEGPSLLIVYWEMEDKNIIQFVHG (KLLSLIKGVIVHRLEGVEGPSLLIVYWEMEDKNIIQFVHG-NH2) [PD-L1(36)]
[1]
  average tumor growth inhibition: strongest average tumor growth inhibition

## KLLSLIKGVIVHRLEGVEGPSLVTSEHELTCQAEGYPKAE (KLLSLIKGVIVHRLEGVEGPSLVTSEHELTCQAEGYPKAE-NH2) [PD-L1(130)]
[1]
  levels of lesions: lowest levels of lesions
  percentage of tumor growth inhibition compared to negative control: Significant higher percentage of tumor growth inhibition
  tumor inhibition versus PBS: significant inhibition of tumor growth
  average tumor growth inhibition: strongest average tumor growth inhibition
[1]; Kaplan-Meier method
  survival rate: highest survival rate
PD-1/PD-L1 interaction
  blocking of PD-1/PD-L1 interaction: able to inhibit PD-1/PD-L1

## KLLSLIKGVIVHRLEGVEGPSLYRCMISYGGADYKRITVK (KLLSLIKGVIVHRLEGVEGPSLYRCMISYGGADYKRITVK-NH2) [PD-L1(95)]
PD-1/PD-L1 interaction
  blocking of PD-1/PD-L1 interaction: unable to block PD-1 and PD-L1
